Laboratory results as given in the NIST ThermoML archive (doi:10.1016/j.jct.2007.01.008).
Where “and” joins values, the source holds several entries; their conditions need not be identical. Equal values may be shown once.

Conditions: for surface tension liquid-gas: Ring tensiometer; for viscosity / mass density: 101.33 kPa, Liquid; for viscosity: Capillary tube (Ostwald / Ubbelohde) method; for mass density: Vibrating tube method

CCC(=O)CC [pentan-3-one]
Conditions | mass density | surface tension liquid-gas [mN/m] | viscosity [mPa·s]
283.15 K | 824.27 kg/m3 | 26.5 | 0.515
285.15 K | 822.28 kg/m3 | 26.3 | 0.507
287.15 K | 820.3 kg/m3 | 26.1 | 0.499
289.15 K | 818.31 kg/m3 | 26 | 0.492
291.15 K | 816.33 kg/m3 | 25.8 | 0.484
292.15 K | – | – | 0.48
293.15 K | 814.34 kg/m3 | 25.6 | 0.476
295.15 K | 812.36 kg/m3 | 25.4 | 0.468
297.15 K | 810.37 kg/m3 | 25.2 | 0.46
298.15 K | 809.25 kg/m3 and 810.86 kg/m3 | – | 0.458
299.15 K | 808.39 kg/m3 | 25 | 0.453
301.15 K | 806.4 kg/m3 | 24.8 | 0.445
303.15 K | 804.42 kg/m3 | 24.6 | 0.437
305.15 K | 802.43 kg/m3 | 24.4 | 0.429
307.15 K | 800.45 kg/m3 | 24.2 | 0.421
309.15 K | 798.46 kg/m3 | 24 | 0.414
311.15 K | 796.48 kg/m3 | 23.8 | 0.406
313.15 K | 794.49 kg/m3 | 23.6 | 0.398
315.15 K | 792.51 kg/m3 | 23.4 | 0.39
317.15 K | 790.52 kg/m3 | 23.3 | 0.382
319.15 K | 788.54 kg/m3 | 23.1 | 0.375
321.15 K | 786.55 kg/m3 | 22.9 | 0.367
323.15 K | 784.57 kg/m3 | 22.7 | 0.359
325.15 K | 782.59 kg/m3 | 22.5 | 0.351
327.15 K | 780.6 kg/m3 | 22.3 | 0.343
329.15 K | 778.62 kg/m3 | 22.1 | 0.336
